Values after ≈ are worked out from the molar mass of the structure shown. Values joined by “and” are separate entries in the source; they are usually repeats but may differ in a detail not shown here. Equal values may be shown once. Read-outs that look alike come from different tables or passages of the source.
Experiments:
[1] = tested on: K. pneumoniae UNT-023 (KPC-2); test: MIC vs. septicemia model strain; format: cell-based; conditions: Klebsiella pneumoniae, read-out: MIC vs. K. pneumoniae UNT-023 (KPC-2)
[2] = tested on: E. coli (UNT-204-1, TEM-1 plus CTX-M-15 producing); format: in vivo, C3H/HeJ mice; conditions: for Log10 Change in CFU/Sample vs. untreated controls, Day 7, Bladder / Log10 Change in CFU/Sample vs. untreated controls, Day 7, Kidneys / Log10 Change in CFU/Sample vs. untreated controls, Day 7, Urine: SC, BID, 3 days
[3] = tested on: ESBL-expressing Enterobacteriaceae (n = 33); test: Broth microdilution MIC, ceftibuten/Compound 2 vs IV comparators; format: cell-based
[4] = tested on: OXA-48-expressing Enterobacteriaceae (n = 39); test: as above
[5] = biological target: T1, CMY-2 (Klebsiella pneumoniae, UniProt Q48434); test: Beta-lactamase enzyme inhibition (IC50); format: biochemical
T1 construct: expressed as native untagged proteins; made in house; host or cells: E. coli BL21(DE3)

[6] = biological target: T2, CTX-M-15 (Escherichia coli, UniProt Q9EXV5); format: biochemical
T2 construct: expressed as native untagged proteins; made in house; host or cells: E. coli BL21(DE3)
Experimental: (§1) Assays (200 μl final volume) were performed in PBS in triplicate using 96-well microtiter plates. Cephalothin was used as the substrate for p99 AmpC and CTX-M-15 (50 μM for p99 AmpC; 75 μM for CTX-M-15) and reactions were initiated by addition of enzyme (0.2 nM p99 AmpC; 3 nM CTX-M-15). The decrease in the absorbance at λ260 nm was recorded continuously on a BioTek Powerwave XS2 microplate reader. […] SHV-5 reactions were initiated with 40 nM enzyme, using cefotaxime (100 μM) as the substrate. […] For KPC-2, imipenem (75 μM) was used as the substrate, and reactions initiated with 3 nM enzyme. Reaction progress was monitored by measuring the reduction in absorbance at λ300 nm in continuous fashion. […] Time courses for reaction progress were fit to the following equation, using Prism 7.04 (GraphPad Software, LaJolla, USA) to obtain kobs:
(§2) Off-rates for Compound 2 with the various beta-lactamases were determined by jump dilution experiments, performed in triplicate. Enzyme and inhibitor were incubated at room temperature for 10 minutes. Enzyme:inhibitor complexes were then diluted 800-fold into reaction buffer (50 mM Hepes, pH 7.0, 0.1 mg/ml BSA), and 20 μL of the diluted reaction immediately added to 180 μl of 110 μM nitrocefin in a 96-well microtiter plate, and the absorbance at λ 486 nm measured continuously on a BioTek Powerwave XS2 microplate reader. The resulting progress curves were fit to a single exponential, from which koff was derived. Half-life was determined using:
(§3) To determine Ki, plots of the inhibitor concentration versus inverse the initial velocity were fit to a linear equation, and the observed Ki corrected for substrate concentration and affinity by: […]

[7] = biological target: T3, KPC-2 (Klebsiella pneumoniae, UniProt Q9F663); format: biochemical
T3 construct: expressed as native untagged proteins; made in house; host or cells: E. coli BL21(DE3)
Experimental: as §1, §2, §3

[8] = biological target: T4, SHV-5 (Klebsiella pneumoniae, UniProt P0A3M1); format: biochemical
T4 construct: expressed as native untagged proteins; made in house; host or cells: E. coli BL21(DE3)
Experimental: as §1, §2, §3

[9] = tested on: four beta-lactamase expressing Enterobacteriaceae (1 KPC, 1 p99, 1 CTX-M-15, and 1 OXA-48); test: Time-kill kinetic analyses; format: cell-based; conditions: Compound 2 fixed at 4 μg/mL, 24 hours
Experimental: Activity was determined against four beta-lactamase expressing Enterobacteriaceae (1 KPC, 1 p99, 1 CTX-M-15, and 1 OXA-48). […] Macrodilution tubes were incubated with shaking and bacterial amounts were quantified at 0, 2, 4, 6, 8, and 24 hours by limiting dilutions. Amoxicillin/clavulanic acid (2:1) was used as a comparator oral antibacterial.

[10] = Single dose plasma pharmacokinetics (fasted and non-fasted); format: in vivo, Sprague-Dawley rats; conditions: Sprague-Dawley, rat, iv, 5 mg/kg
[11] = as above; format: in vivo, Beagle dogs; conditions: male, Beagle, dog, iv, 5 mg/kg
[12] = as above; format: in vivo, Cynomolgus monkeys; conditions: male, Cynomolgus, cynomolgus monkey, iv, 5 mg/kg
[13] = Single ascending dose pharmacokinetics, Solutol HS-15:Water (10:90); format: in vivo, Beagle dogs; conditions: beagle, dog, plasma, iv, 10 mg/kg
[14] = Single ascending dose pharmacokinetics, Solutol HS-15:Water (20:80); format: in vivo, Cynomolgus monkeys; conditions: cynomolgus monkey, plasma, iv, 1 mg/kg
Experimental: This study included dose concentrations ranging from 2-120 mg/mL.

[15] = Metabolic stability in liver S9; format: in vitro ADME; conditions: liver S9; Human; test conc. 3 μM
[16] = Metabolic stability in intestinal S9; format: in vitro ADME; conditions: intestinal S9; Human; test conc. 3 μM
[17] = Metabolic stability in intestinal S9; format: in vitro ADME, cynomolgus monkey; conditions: cynomolgus, intestinal S9; Monkey; test conc. 3 μM
[18] = Metabolic stability in intestinal S9; format: in vitro ADME, beagle dog; conditions: beagle, intestinal S9; Dog; test conc. 3 μM
[19] = tested on: 21 beta-lactamase-producing Enterobacteriaceae strains; test: Neutropenic mouse thigh infection model, dose ranging; format: in vivo, mice

Nc1nc(/C(=C/CC(=O)O)C(=O)N[C@@H]2C(=O)N3C(C(=O)O)=CCS[C@H]23)cs1 [Ceftibuten, ceftibuten, reference compound]
MIC [1]: > 128 µg/mL | Log10 Change in CFU/Sample vs. untreated controls, Day 7, Bladder ([2]; 3 mg/kg): −0.03 Log10 CFU/Sample | Log10 Change in CFU/Sample vs. untreated controls, Day 7, Kidneys ([2]; 3 mg/kg): −0.44 Log10 CFU/Sample | Log10 Change in CFU/Sample vs. untreated controls, Day 7, Urine ([2]; 3 mg/kg): −1.24 Log10 CFU/Sample | Log10 Change in CFU/Sample vs. untreated controls, Day 7, Bladder ([2]; 10 mg/kg): −1.51 Log10 CFU/Sample | Log10 Change in CFU/Sample vs. untreated controls, Day 7, Kidneys ([2]; 10 mg/kg): −1.55 Log10 CFU/Sample | Log10 Change in CFU/Sample vs. untreated controls, Day 7, Urine ([2]; 10 mg/kg): −0.59 Log10 CFU/Sample | Log10 Change in CFU/Sample vs. untreated controls, Day 7, Bladder ([2]; 30 mg/kg): −2.08 Log10 CFU/Sample | Log10 Change in CFU/Sample vs. untreated controls, Day 7, Kidneys ([2]; 30 mg/kg): −1.57 Log10 CFU/Sample | Log10 Change in CFU/Sample vs. untreated controls, Day 7, Urine ([2]; 30 mg/kg): −2.28 Log10 CFU/Sample | reduction of bacterial load in the kidneys (average) ([2]; 100 mg/kg, SC twice daily for 3 days): 2.11 log10 CFU | Log10 Change in CFU/Sample vs. untreated controls, Day 7, Bladder ([2]; 100 mg/kg): −2.26 Log10 CFU/Sample | Log10 Change in CFU/Sample vs. untreated controls, Day 7, Kidneys ([2]; 100 mg/kg): −2.11 Log10 CFU/Sample | Log10 Change in CFU/Sample vs. untreated controls, Day 7, Urine ([2]; 100 mg/kg): −2.54 Log10 CFU/Sample | Log10 Change in CFU/Sample vs. untreated controls, Day 7, Bladder ([2]; 300 mg/kg): −1.83 Log10 CFU/Sample | Log10 Change in CFU/Sample vs. untreated controls, Day 7, Kidneys ([2]; 300 mg/kg): −2.14 Log10 CFU/Sample | Log10 Change in CFU/Sample vs. untreated controls, Day 7, Urine ([2]; 300 mg/kg): −3.37 Log10 CFU/Sample | Number of strains at MIC value 0.5 mg/L ([3]; ESBL-expressing (n = 33)): 2 | Number of strains at MIC value 1 mg/L ([3]; ESBL-expressing (n = 33)): 4 | Number of strains at MIC value 2 mg/L ([3]; ESBL-expressing (n = 33)): 2 | Number of strains at MIC value 4 mg/L ([3]; ESBL-expressing (n = 33)): 8 | Number of strains at MIC value 8 mg/L ([3]; ESBL-expressing (n = 33)): 5 | Number of strains at MIC value 16 mg/L ([3]; ESBL-expressing (n = 33)): 1 | Number of strains at MIC value […] ([3]; ESBL-expressing (n = 33)): 2 and 3 | Number of strains at MIC value ≤0.06 mg/L ([3]; ESBL-expressing (n = 33)): 0 | Number of strains at MIC value ≥32 mg/L ([3]; ESBL-expressing (n = 33)): 6 | MIC50 ([3]; iv): 4 µg/mL (≈ 9.75 µM) | MIC90 ([3]; iv): ≥ 32 µg/mL | MIC50 [4]: 16 µg/mL (≈ 39 µM) | MIC90 [4]: ≥ 32 µg/mL

CCC(=O)N[C@H]1Cc2cccc(C(=O)O)c2OB1O [Compound 2, (R)-2-hydroxy-3-propionamido-3,4-dihydro-2H-benzo[e][1,2]oxaborinine-8-carboxylic acid]
IC50 [5]: 14 nM | Ki [6]: 10 nM | k−2 [6]: 4.5 ± 0.1 10^−4 s^−1 | t1/2 [6]: 0.433 ± 0.01 h | Ki [7]: 110 nM | k−2 [7]: 2.5 ± 0.1 10^−4 s^−1 | t1/2 [7]: 0.767 ± 0.0333 h | Ki [8]: 41 nM | k−2 [8]: 12.7 ± 0.07 10^−4 s^−1 | t1/2 [8]: 6.5 ± 0.04 min | rescue of ceftibuten to cidality in time-kill [9]: able to rescue ceftibuten to a cidal endpoint through 24 hours | AUC(0-inf) [10]: 3710 ng·h/mL | Cmax [10]: 7100 ng/mL | AUC(0-inf) [11]: 25500 ng·h/mL | Cmax [11]: 22400 ng/mL | AUC(0-inf) [12]: 38400 ng·h/mL | Cmax [12]: 38600 ng/mL | AUC(0-inf) [13]: 39300 ng·h/mL | Cmax [13]: 54500 ng/mL | AUC(0-inf) [14]: 10000 ng·h/mL | Cmax [14]: 26000 ng/mL | half-life at 3 μM [15]: > 2 h | half-life at 3 μM [16]: > 2 h | half-life at 3 μM [17]: > 2 h | half-life at 3 μM [18]: > 2 h | rescue of ceftibuten activity ([19]; ceftibuten 300 mg q8h human-simulated regimen with Compound 2 q8h): rescued ceftibuten activity in all 21 beta-lactamase-expressing strains | Compound 2 median exposure at which net bacterial stasis was achieved ([19]; ceftibuten 300 mg q8h human-simulated regimen, interquartile range 3.06-18.56): 8.98 mg·h/L

From patent US12544395B2, “Combination compositions comprising a beta-lactamase inhibitor and uses thereof” (priority 2018, dated 2026)
